Data as given in patent publication US11660310B2, “Low dose combination CDA substrate drug/cedazuridine with extended administration” (Otsuka Pharmaceutical Co., Ltd., priority 2018, dated 2023).

Experiments:
[1] = test system: sickle cell disease model; details: sickle cell disease model in baboons; Am. J. Hematol. 1985; cited from earlier work
clinical = details: human, in vivo, iv, 20 mg/m2, 5-Days total (AUClast) IV

O=C1NC(O)CCN1[C@@H]1O[C@H](CO)[C@@H](O)[C@H]1O (some centres unmarked) [Tetrahydrouridine]
effect on the potency of decitabine [1]: improve the potency of decitabine

Nc1ncn([C@H]2C[C@H](O)[C@@H](CO)O2)c(=O)n1 [decitabine, 5-aza-2′-deoxycytidine]
AUC(0-t) (clinical): 852 ng·h/mL
